In US8961970B2, “Combination therapy” (Novartis AG, priority 2012, dated 2015):

How the values were obtained:
Miapaca-2 cells = experiment: Cell proliferation / viability assay (CellTiter-Glo, dose matrix) in Miapaca-2 cells; assay type: cell-based
Method: (§1) A cell proliferation assay was performed to investigate the activity of the combination of COMPOUND A and ANTIBODY A on Insulin-like Growth Factor 1 (IGF1)-induced proliferation of the KRAS mutant cell lines Miapaca-2 and AsPC-1. To evaluate the combination effect in a non-biased way, and to identify synergistic effects at different concentrations, the study was conducted using a “dose matrix” scheme (described in detail below).
(§2) COMPOUND A (10 mM) was stored in aliquots at −20° C. ANTIBODY A (0.2 mM in 1% BSA) was stored in aliquots at 4° C. Insulin-like Growth Factor-1 (IGF1; R&D System, Cat #291-G1) was reconstituted at 100 ug/mL in sterile Phosphate Buffered Saline (PBS).
(§3) The KRAS mutant, pancreatic cancer cell lines Miapaca-2 and AsPC-1 were cultured in DMEM medium (ATCC Cat #30-2002) and RPMI-1640 (ATCC Cat #30-2001) plus 10% Fetal Bovine Serum (FBS; Invitrogen Cat #10099-141) as recommended by the supplier. Cells were cultured in T-150 flasks using standard cell culture techniques and split upon reaching 80% confluency. TryPLE Express (Invitrogen #12604-013, no phenal red) was used for all cell dissociation. Cell count and viability were measured using Trypan dye exclusion with a ViCell counter (Beckman-Coulture). Cells were determined to be free of Mycoplasma using a PCR detection method (www.radil.missouri.edu). […]

AsPC-1 cells = experiment: Cell proliferation / viability assay (CellTiter-Glo, dose matrix) in AsPC-1 cells; assay type: cell-based
Method: as §1, §2, §3

Compound: Cn1cnc2c(F)c(Nc3ccc(Br)cc3F)c(C(=O)NOCCO)cc21 [COMPOUND A, 6-(4-bromo-2-fluorophenylamino)-7-fluoro-3-methyl-3H-benzoimidazole-5-carboxylic acid (2-hydroxyethyoxy)-amide]
- single agent anti-proliferative activity (Miapaca-2 cells; Miapaca-2, KRAS mutant pancreatic cancer cell line, 120 hours incubation, presence and absence of IGF1 (100 ng/ml)): concentration dependent anti-proliferative activity
- effect of addition of IGF1 on single agent activity (Miapaca-2 cells; Miapaca-2, with versus without IGF1): slightly dampen
- single agent anti-proliferative activity (AsPC-1 cells; AsPC-1, KRAS mutant pancreatic cancer cell line, 120 hours incubation, presence and absence of IGF1 (100 ng/ml)): concentration dependent anti-proliferative activity
- effect of addition of IGF1 on single agent activity (AsPC-1 cells; AsPC-1, with versus without IGF1): slightly dampen
